Data from BindingDB's records for doi:10.7270/Q20G3HMV (Burnham Center For Chemical Genomics, 2010).

Each molecule was assayed against Envelope glycoprotein gp160 (Human immunodeficiency virus 1, UniProt Q6QLK5) (assay: HIV Env-driven cell-cell fusion inhibition, SAR follow-up, luminescence reporter (AID 435029)).
Envelope glycoprotein gp160, sequence (Q6QLK5 whole entry, the tested form may be a part): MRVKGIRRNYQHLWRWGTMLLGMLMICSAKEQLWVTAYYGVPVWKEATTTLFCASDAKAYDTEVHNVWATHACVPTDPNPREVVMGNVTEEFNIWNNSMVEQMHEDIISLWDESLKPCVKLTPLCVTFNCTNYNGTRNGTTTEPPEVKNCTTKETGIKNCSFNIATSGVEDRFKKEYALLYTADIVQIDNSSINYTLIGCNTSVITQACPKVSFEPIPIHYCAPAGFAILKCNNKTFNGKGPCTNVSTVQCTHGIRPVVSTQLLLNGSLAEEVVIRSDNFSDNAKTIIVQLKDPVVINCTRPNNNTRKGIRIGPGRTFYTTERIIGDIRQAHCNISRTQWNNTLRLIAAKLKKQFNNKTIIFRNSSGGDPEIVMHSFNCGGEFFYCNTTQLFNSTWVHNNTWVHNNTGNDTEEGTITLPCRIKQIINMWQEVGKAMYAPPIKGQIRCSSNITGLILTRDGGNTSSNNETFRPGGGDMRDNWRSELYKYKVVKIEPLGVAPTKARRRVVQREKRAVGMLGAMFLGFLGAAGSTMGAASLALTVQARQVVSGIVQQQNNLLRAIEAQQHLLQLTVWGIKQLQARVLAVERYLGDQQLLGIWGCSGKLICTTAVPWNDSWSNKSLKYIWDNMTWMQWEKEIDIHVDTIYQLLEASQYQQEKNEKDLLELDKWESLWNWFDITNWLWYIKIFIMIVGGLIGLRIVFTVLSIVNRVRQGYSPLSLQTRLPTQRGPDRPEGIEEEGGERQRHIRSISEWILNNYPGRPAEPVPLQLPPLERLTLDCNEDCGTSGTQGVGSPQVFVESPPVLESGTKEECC
Work on `Cc1c(Cl)cccc1NS(=O)(=O)c1ccc2c(c1)C1C=CCC1C(c1ccc(C(=O)O)cc1)N2` (centres undefined) yielded an IC50 of 5.4 µM. For `CS(=O)(=O)C1=NSC2=NC(=O)/C(=C\c3cccn3-c3ccc(Cl)cc3)C(=N)N21`, the IC50 was 8.8 µM. Molecule `COc1cc(/C=C2\SC(=O)N(c3ccccc3Cl)C2=O)cc([N+](=O)[O-])c1O` has an IC50 of 7.5 µM. `N#C/C(=C\C1C=CC(=O)C([N+](=O)[O-])=C1)c1nc2ccccc2s1` (centres undefined) was tested, and the IC50 was 4.65 µM. Molecule `CCC(Sc1nc2ccsc2c(=O)n1Cc1ccc(C(=O)O)cc1)C(=O)Nc1ccc(C)c(Cl)c1` (centres undefined) has an IC50 of 13.2 µM. `CS(=O)(=O)C1=NSC2=NC(=O)/C(=C\c3ccc(OS(=O)(=O)c4ccccc4)cc3)C(=N)N21` was tested, and the IC50 was 12.7 µM. For `CCOc1cc(/C=C2\SC(=O)N(CC(=O)Nc3ccccc3F)C2=O)cc([N+](=O)[O-])c1O`, the IC50 was 8.3 µM. In the case of `O=C1Nc2ccc([N+](=O)[O-])cc2C1=NNc1ccccc1C(=O)O` [2-[2-(5-nitro-2-oxidanylidene-indol-3-yl)hydrazinyl]benzoic acid], the IC50 is reported as > 100 µM. Molecule `CCOC(=O)C1=C(C)N=c2sc(=Cc3ccc(OCC(=O)O)cc3)c(=O)n2C1c1ccc(OC(C)C)cc1` (centres undefined) [2-[4-[[6-ethoxycarbonyl-7-methyl-3-oxo-5-(4-propan-2-yloxyphenyl)-5H-[1,3]thiazolo[3,2-a]pyrimidin-2-ylidene]methyl]phenoxy]acetic acid] has an IC50 of 4.45 µM. Molecule `O=c1/c(=C/c2cc([N+](=O)[O-])cc([N+](=O)[O-])c2O)sc2nc3ccccc3n12` [2-[(2-hydroxy-3,5-dinitrophenyl)methylidene]-1-thiazolo[3,2-a]benzimidazolone] has an IC50 of 8.6 µM. With `CCC(C)(C)C1CCc2c(sc(NC(=O)c3ccccc3C(=O)O)c2C#N)C1` (centres undefined) [2-[[3-cyano-6-(2-methylbutan-2-yl)-4,5,6,7-tetrahydro-1-benzothiophen-2-yl]carbamoyl]benzoic acid] the IC50 was 7.3 µM. With `O=C(O)c1ccccc1C(=O)N(Cc1cccc(Oc2ccc(Cl)cc2)c1)[C@H]1CCCc2ccccc21` [2-[[[3-(4-chlorophenoxy)phenyl]methyl-[(1S)-1,2,3,4-tetrahydronaphthalen-1-yl]amino]-oxomethyl]benzoic acid] the IC50 was 4.1 µM. `COc1cc(CN=Nc2ccc(Cl)c(C(=O)O)c2)ccc1OC(=O)c1ccc(F)cc1` [2-chloro-5-[2-[[4-[(4-fluorophenyl)-oxomethoxy]-3-methoxyphenyl]methylidene]hydrazinyl]benzoic acid] was tested, and the IC50 was 30 µM. In the case of `CC(C)S(=O)(=O)C1=NSC2=NC(=O)/C(=C\c3ccc(-c4cccc(C(=O)O)c4)o3)C(=N)N21` [3-[5-[(Z)-(5-imino-7-oxo-3-propan-2-ylsulfonyl-[1,2,4]thiadiazolo[4,5-a]pyrimidin-6-ylidene)methyl]furan-2-yl]benzoic acid], the IC50 is reported as 68 µM. In the case of `O=[N+]([O-])c1cc([N+](=O)[O-])c2oc(-c3ccccc3)c(Br)c2c1O` [3-bromanyl-5,7-dinitro-2-phenyl-1-benzofuran-4-ol], the IC50 is reported as 2.5 µM. `O=C(O)CCCN1C(=O)/C(=C/c2ccc(-c3nc4ccccc4s3)o2)SC1=S` [4-[(5Z)-5-[[5-(1,3-benzothiazol-2-yl)furan-2-yl]methylidene]-4-oxo-2-sulfanylidene-1,3-thiazolidin-3-yl]butanoic acid] showed an IC50 of 1 µM. With `CC(C)(C)c1cc(-c2cs/c(=N\c3ccccc3)n2Cc2ccc(C(=O)O)cc2)cc(C(C)(C)C)c1O` [4-[[4-(3,5-ditert-butyl-4-oxidanyl-phenyl)-2-phenylazanyl-1,3-thiazol-3-ium-3-yl]methyl]benzoic acid;bromide] the IC50 was 3.5 µM. `Cc1ccc(S(=O)(=O)Oc2ccc(/C=C3/C(=N)N4C(=NC3=O)SN=C4S(C)(=O)=O)cc2)cc1` [4-methylbenzenesulfonic acid [4-[(Z)-(5-imino-3-methylsulfonyl-7-oxo-[1,2,4]thiadiazolo[4,5-a]pyrimidin-6-ylidene)methyl]phenyl] ester] showed an IC50 of 8 µM. For `O=C1NC(=S)N(c2ccc(F)cc2)C(=O)C1=Cc1ccco1` [(5E)-1-(4-fluorophenyl)-5-(2-furanylmethylidene)-2-sulfanylidene-1,3-diazinane-4,6-dione], the IC50 was 20 µM. With `Cc1cc(C)cc(-n2cccc2/C=C2/C(=N)N3C(=NC2=O)SN=C3S(C)(=O)=O)c1` [(6Z)-5-azanylidene-6-[[1-(3,5-dimethylphenyl)pyrrol-2-yl]methylidene]-3-methylsulfonyl-[1,2,4]thiadiazolo[4,5-a]pyrimidin-7-one] the IC50 was 4.7 µM. Work on `CC(C)S(=O)(=O)C1=NSC2=NC(=O)/C(=C\c3ccc(-c4ccccc4)o3)C(=N)N21` [(6Z)-5-imino-6-[(5-phenyl-2-furanyl)methylidene]-3-propan-2-ylsulfonyl-[1,2,4]thiadiazolo[4,5-a]pyrimidin-7-one] yielded an IC50 of 3.2 µM. With `CSc1nnc(-c2ccccc2N=Cc2c(C)[nH]n(-c3ccc4ccccc4c3)c2=O)c(=O)[nH]1` [MLS000540062] the IC50 was 16.5 µM. `Cc1ccc(-n2cccc2/C=C2/C(=N)N3C(=NC2=O)SN=C3S(C)(=O)=O)cc1Cl` [MLS000583163] showed an IC50 of 4.6 µM. With `CC1(C)CC(=O)C2=C(C1)c1c(ccc3ccccc13)NC2c1cc([N+](=O)[O-])cc([N+](=O)[O-])c1O` (centres undefined) [MLS000716265] the IC50 was 2.4 µM. In the case of `Cc1c2c(=O)n(-c3nc4ccccc4s3)[nH]c2cc(=O)n1Cc1ccccc1` [MLS000762993], the IC50 is reported as 6.58 µM. Molecule `COc1ccccc1NS(=O)(=O)c1cccc(-n2c(O)c(C=Nc3ccccc3C(=O)O)c3ccccc3c2=O)c1` [MLS000776209] has an IC50 of 2.3 µM. With `COc1ccc(OC)c(N2C(=O)C(=Cc3ccco3)C(=O)NC2=S)c1` [MLS001197216] the IC50 was 15 µM. In the case of `COc1cc(/C=N/NS(=O)(=O)c2ccc3ccccc3c2)ccc1OCc1ccc(C(=O)O)cc1` [MLS-0298745.0001], the IC50 is reported as 31 µM. Molecule `O=C(O)c1cc(N=NCc2ccc(-c3ccccc3)cc2)ccc1Cl` [MLS-0319671.0001] has an IC50 of 10 µM. With `N#C/C(=C\c1ccc(OCc2ccc(Cl)cc2)cc1)C(=O)Nc1cccc(C(=O)O)c1` [MLS-0334991.0001] the IC50 was > 100 µM. Work on `CCS(=O)(=O)C1=NSC2=NC(=O)/C(=C\c3ccc(OS(=O)(=O)c4ccccc4)cc3)C(=N)N21` [MLS-0362442.0001] yielded an IC50 of 8.4 µM. With `CC(C)NC(=O)c1sc(=S)n2c1[nH]c(=O)c1ccc(C(=O)NCCc3ccc(Cl)cc3)cc12` [N8-[2-(4-chlorophenyl)ethyl]-5-oxidanylidene-N3-propan-2-yl-1-sulfanylidene-4H-[1,3]thiazolo[3,4-a]quinazoline-3,8-dicarboxamide] the IC50 was 11.1 µM. Work on `O=C1NC(=S)N(C2CCCCC2)C(=O)C1=CNNC(=O)c1ccccc1O` [N'-[(E)-(1-cyclohexyl-4,6-dioxo-2-sulfanylidene-1,3-diazinan-5-ylidene)methyl]-2-hydroxybenzohydrazide] yielded an IC50 of 11.5 µM. `O=C1NC(=S)N(c2ccc(F)cc2)C(=O)C1=Cc1ccoc1` [SMR000270574] showed an IC50 of 11.3 µM. Molecule `Cc1ccc(-n2c(O)c(C=Nc3ccccc3-c3n[nH]c(=S)[nH]c3=O)c3ccccc3c2=O)c(C)c1` [SMR000370443] has an IC50 of 9.8 µM. `COC(=O)c1sc(-c2ccc(C(C)(C)C)cc2)cc1NC(=O)c1ccccc1C(=O)O` [SMR000456098] was tested, and the IC50 was 1.5 µM. `COc1cc(CN=Nc2ccc(Cl)c(C(=O)O)c2)ccc1OC(=O)c1ccccc1F` [SMR000589905] was tested, and the IC50 was 68 µM. Molecule `COc1ccc(C(=O)Oc2ccc(CN=Nc3ccc(Cl)c(C(=O)O)c3)cc2OC)cc1` [SMR000589907] has an IC50 of 13 µM. Work on `CCOC(=O)c1sc(N2C(=O)C(=O)C(C(=O)c3ccc(C)o3)C2c2cccc([N+](=O)[O-])c2)nc1C` (centres undefined) [ethyl 4-methyl-2-[3-(5-methylfuran-2-yl)carbonyl-2-(3-nitrophenyl)-4-oxidanyl-5-oxidanylidene-2H-pyrrol-1-yl]-1,3-thiazole-5-carboxylate] yielded an IC50 of 5.1 µM.
